This note sets out measurements from patent US9540391B2, “Isomannide derivatives as inhibitors of soluble epoxide hydrolase” (SANOFI, priority 2013, dated 2017).

Where a name gives a salt, the structure may show the parent alone.

The target in the assay is T1, recombinant sEH (Homo sapiens, UniProt P34913).
T1 construct: made in house; host or cells: Sf9 insect cells
T1 sequence (P34913 1-555): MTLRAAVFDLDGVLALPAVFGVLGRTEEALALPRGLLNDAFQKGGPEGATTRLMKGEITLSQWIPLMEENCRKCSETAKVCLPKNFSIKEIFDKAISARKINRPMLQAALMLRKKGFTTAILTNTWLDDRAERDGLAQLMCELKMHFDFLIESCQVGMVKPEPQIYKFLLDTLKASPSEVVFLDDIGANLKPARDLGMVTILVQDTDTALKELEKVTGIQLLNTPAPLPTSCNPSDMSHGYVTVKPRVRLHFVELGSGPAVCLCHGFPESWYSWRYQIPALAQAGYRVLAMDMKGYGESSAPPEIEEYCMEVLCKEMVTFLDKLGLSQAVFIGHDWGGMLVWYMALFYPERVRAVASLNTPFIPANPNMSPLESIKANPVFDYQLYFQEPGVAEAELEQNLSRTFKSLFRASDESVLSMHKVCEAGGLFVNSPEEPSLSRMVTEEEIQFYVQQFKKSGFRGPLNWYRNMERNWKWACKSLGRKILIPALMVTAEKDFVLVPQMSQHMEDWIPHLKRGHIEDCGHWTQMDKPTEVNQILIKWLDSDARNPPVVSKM
Put plainly: biochemical screening assay for inhibition of soluble epoxide hydrolase (fluorometric, Phome substrate). A digest of the protocol: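 Reading fluorescence before substrate addition and after completion corrected for autofluorescence. Reaction: 5 μM Phome, 2 nM recombinant human sEH (Sf9-expressed), compound 0.0001–10 μM, 25 mM Hepes with 0.01% albumin, 15 min pre-incubation then 60 min at 30 °C; IC50 derived from % inhibition.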

By IC50 is commonly meant the concentration at which inhibition is half-maximal. In the case of `Cc1cc(O[C@H]2CO[C@H]3[C@@H]2OC[C@@H]3NC(=O)NC2CCCCC2)cc(C)n1` [Example 67, 1-Cyclohexyl-3-[(3S,3aR,6S,6aS)-6-(2,6-dimethyl-pyridin-4-yloxy)-hexa-hydro-furo[3,2-b]furan-3-yl]-urea], the IC50 is 1 nM.
For the molecule `CC(C)(O)c1cncc(O[C@H]2CO[C@H]3[C@@H]2OC[C@@H]3NC(=O)NC2CCCCC2)c1` [Example 68, 1-cyclohexyl-3-{(3S,3aR,6S,6aS)-6-[5-(1-hydroxy-1-methyl-ethyl)-pyridin-3-yloxy]-hexahydro-furo[3,2-b]furan-3-yl}-urea; hydrochloride], the IC50 was determined as 2 nM.
For the molecule `CCC(O)(CC)c1cncc(O[C@H]2CO[C@H]3[C@@H]2OC[C@@H]3NC(=O)NC2CCCCC2)c1` [Example 69, 1-cyclohexyl-3-{(3S,3aR,6S,6aS)-6-[5-(1-ethyl-1-hydroxy-propyl)-pyridin-3-yloxy]-hexahydro-furo[3,2-b]furan-3-yl}-urea], the IC50 came to 2 nM.
Next, `O=C(NC1CCCCC1)N[C@H]1CO[C@H]2[C@@H]1OC[C@@H]2Oc1ccc(N2CCCC2)nc1` [Example 70, 1-cyclohexyl-3-[(3S,3aR,6S,6aS)-6-(6-pyrrolidin-1-yl-pyridin-3-yloxy)-hexahydro-furo[3,2-b]furan-3-yl]-urea]: 1 nM; `O=C(NC1CCCCC1)N[C@H]1CO[C@H]2[C@@H]1OC[C@@H]2Oc1ccc(N2CCC(F)(F)CC2)nc1` [Example 71, 1-Cyclohexyl-3-[(3S,3aR,6S,6aS)-6-(4,4-difluoro-3,4,5,6-tetrahydro-2H-[1,2′]bipyridinyl-5′-yloxy)-hexahydro-furo[3,2-b]furan-3-yl]-urea]: 7 nM.
With `CCN(CC)c1ccc(O[C@H]2CO[C@H]3[C@@H]2OC[C@@H]3NC(=O)NC2CCCCC2)cn1` [Example 72, 1-Cyclohexyl-3-[(3S,3aR,6S,6aS)-6-(6-diethylamino-pyridin-3-yloxy)-hexa-hydro-furo[3,2-b]furan-3-yl]-urea], the concentration for half-maximal inhibition (IC50) was under 1 nM.
Next, `O=C(NC1CCCCC1)N[C@H]1CO[C@H]2[C@@H]1OC[C@@H]2Oc1ccc(N2CCOCC2)nc1` [Example 73, 1-Cyclohexyl-3-[(3S,3aR,6S,6aS)-6-(6-morpholin-4-yl-pyridin-3-yloxy)-hexahydro-furo[3,2-b]furan-3-yl]-urea]: 4 nM; `O=C(NC1CCCCC1)N[C@H]1CO[C@H]2[C@@H]1OC[C@@H]2S(=O)(=O)C1CCCCC1` [Example 74, 1-((3S,3aR,6S,6aS)-6-cyclohexanesulfonyl-hexahydro-furo[3,2-b]furan-3-yl)-3-cyclohexyl-urea]: 5 nM; `O=C(NC1CCCCC1)N[C@H]1CO[C@H]2[C@@H]1OC[C@@H]2Oc1cccc(N2CCCCC2)c1` [Example 75, 1-cyclohexyl-3-[(3S,3aR,6S,6aS)-6-(3-piperidin-1-yl-phenoxy)-hexahydro-furo[3,2-b]furan-3-yl]-urea]: 2 nM.
In the case of `Cc1ncccc1O[C@H]1CO[C@H]2[C@@H]1OC[C@@H]2NC(=O)NC1CCCCC1` [Example 76, 1-cyclohexyl-3-[(3S,3aR,6S,6aS)-6-(2-methyl-pyridin-3-yloxy)-hexahydro-furo[3,2-b]furan-3-yl]-urea], the IC50 was determined as 2 nM.
For the molecule `O=C(NC1CCC(F)(F)CC1)N[C@H]1CO[C@H]2[C@@H]1OC[C@@H]2Oc1ccc(F)cc1` [Example 77, 1-(4,4-difluoro-cyclohexyl)-3-[(3S,3aR,6S,6aS)-6-(4-fluoro-phenoxy)-hexahydro-furo[3,2-b]furan-3-yl]-urea], the IC50 worked out at 17 nM.
Turning to `COC1COCCC1NC(=O)N[C@H]1CO[C@H]2[C@@H]1OC[C@@H]2Oc1cccnc1C` (stereo partly drawn) [Example 78, 1-(3-methoxy-tetrahydro-pyran-4-yl)-3-[(3S,3aR,6S,6aS)-6-(2-methyl-pyridin-3-yloxy)-hexahydro-furo[3,2-b]furan-3-yl]-urea; hydrochloride], the IC50 was determined as 1330 nM.
Turning to `CCOC1COCCC1NC(=O)N[C@H]1CO[C@H]2[C@@H]1OC[C@@H]2Oc1cccnc1C` (stereo partly drawn) [Example 79, 1-(3-ethoxy-tetrahydro-pyran-4-yl)-3-[(3S,3aR,6S,6aS)-6-(2-methyl-pyridin-3-yloxy)-hexahydro-furo[3,2-b]furan-3-yl]-urea; hydrochloride], the IC50 is 987 nM.
Next, `Cc1ncccc1O[C@H]1CO[C@H]2[C@@H]1OC[C@@H]2NC(=O)NC1COC(C)(C)OC1` [Example 80, 1-(2,2-dimethyl-[1,3]dioxan-5-yl)-3-[(3S,3aR,6S,6aS)-6-(2-methyl-pyridin-3-yloxy)-hexahydro-furo[3,2-b]furan-3-yl]-urea]: 1160 nM.
Under `Cc1ncccc1O[C@H]1CO[C@H]2[C@@H]1OC[C@@H]2NC(=O)NC1CCCN(C(=O)OC(C)(C)C)C1` (stereo partly drawn) [Example 81, 3-{3-[(3S,3aR,6S,6aS)-6-(2-methyl-pyridin-3-yloxy)-hexahydro-furo[3,2-b]furan-3-yl]-ureido}-piperidine-1-carboxylic acid tert-butyl ester] stands 16 nM; under `Cc1ncccc1O[C@H]1CO[C@H]2[C@@H]1OC[C@@H]2NC(=O)NC1CCCNC1` (stereo partly drawn) [Example 82, 1-[(3S,3aR,6S,6aS)-6-(2-methyl-pyridin-3-yloxy)-hexahydro-furo[3,2-b]furan-3-yl]-3-piperidin-3-yl-urea; hydrochloride], 2620 nM.
With `Cc1ncccc1O[C@H]1CO[C@H]2[C@@H]1OC[C@@H]2NC(=O)NC1CCCN(C(=O)c2ccc(F)cc2)C1` (stereo partly drawn) [Example 83, 1-[1-(4-fluoro-benzoyl)-piperidin-3-yl]-3-[(3S,3aR,6S,6aS)-6-(2-methyl-pyridin-3-yloxy)-hexahydro-furo[3,2-b]furan-3-yl]-urea], the half-inhibitory concentration (IC50) worked out at 182 nM.
Consider `Cc1ncccc1OC1COC2C(NC(=O)NC3CCCN(C(=O)C(C)C)C3)COC12` [Example 84, 1-(1-Isobutyryl-piperidin-3-yl)-3-[(3S,-3aR,6S,6aS)-6-(2-methyl-pyridin-3-yloxy)-hexahydro-furo[3,2-b]furan-3-yl]-urea], for which the IC50 amounted to 59 nM.
As to `Cc1ncccc1O[C@H]1CO[C@H]2[C@@H]1OC[C@@H]2NC(=O)NC1CCCN(C(=O)C2CC2)C1` (stereo partly drawn) [Example 85, 1-(1-Cyclopropanecarbonyl-piperidin-3-yl)-3-[(3S,3aR,6S,6aS)-6-(2-methyl-pyridin-3-yloxy)-hexahydro-furo[3,2-b]furan-3-yl]-urea], the IC50 came out at 20 nM.
Next, `Cc1ncccc1O[C@H]1CO[C@H]2[C@@H]1OC[C@@H]2NC(=O)NC1CCCN(S(C)(=O)=O)C1` (stereo partly drawn) [Example 86, 1-(1-Methanesulfonyl-piperidin-3-yl)-3-[(3S,3aR,6S,6aS)-6-(2-methyl-pyridin-3-yloxy)-hexahydro-furo[3,2-b]furan-3-yl]-urea]: 41 nM; `Cc1ncccc1O[C@H]1CO[C@H]2[C@@H]1OC[C@@H]2NC(=O)NC1CCCN(C(=O)C(F)(F)F)C1` (stereo partly drawn) [Example 87, 1-[(3S,3aR,6S,6aS)-6-(2-Methyl-pyridin-3-yloxy)-hexahydro-furo[3,2-b]furan-3-yl]-3-[1-(2,2,2-trifluoro-acetyl)-piperidin-3-yl]-urea]: 10 nM.
Under `Cc1ncccc1O[C@H]1CO[C@H]2[C@@H]1OC[C@@H]2NC(=O)NC1CCCN(C(=O)C(C)(C)C)C1` (stereo partly drawn) [Example 88, 1-[1-(2,2-Dimethyl-propionyl)-piperidin-3-yl]-3-[(3S,3aR,6S,6aS)-6-(2-methyl-pyridin-3-yloxy)-hexahydro-furo[3,2-b]furan-3-yl]-urea] stands 53 nM; under `Cc1ncccc1O[C@H]1CO[C@H]2[C@@H]1OC[C@@H]2NC(=O)NC1CCC(F)(F)CC1` [Example 89, 1-(4,4-difluoro-cyclohexyl)-3-[(3S,3aR,6S,6aS)-6-(2-methyl-pyridin-3-yloxy)-hexahydro-furo[3,2-b]furan-3-yl]-urea], 5 nM; under `Cc1ncccc1O[C@H]1CO[C@H]2[C@@H]1OC[C@@H]2NC(=O)NC1CCCC(C(F)(F)F)C1` (stereo partly drawn) [Example 90, 1-[(3S,3aR,6S,6aS)-6-(2-methyl-pyridin-3-yloxy)-hexahydro-furo[3,2-b]furan-3-yl]-3-(3-trifluoromethyl-cyclohexyl)-urea], 1 nM.
Under `Cc1ncccc1O[C@H]1CO[C@H]2[C@@H]1OC[C@@H]2NC(=O)NC1CCOC(C)C1` (stereo partly drawn) [Example 91, 1-[(3S,3aR,6S,6aS)-6-(2-methyl-pyridin-3-yloxy)-hexahydro-furo[3,2-b]furan-3-yl]-3-(2-methyl-tetrahydro-pyran-4-yl)-urea] stands 22 nM; under `CO[C@H]1COCC[C@H]1NC(=O)N[C@H]1CO[C@H]2[C@@H]1OC[C@@H]2Oc1cccnc1C` [Example 93, (R)-1-((R)-3-methoxy-tetrahydro-pyran-4-yl)-3-[(3S,3aR,6S,6aS)-6-(2-methyl-pyridin-3-yloxy)-hexahydro-furo[3,2-b]furan-3-yl]-urea], 32 nM; under `O=C(N[C@H]1CO[C@H]2[C@@H]1OC[C@@H]2Oc1ccc(F)cc1)N1CCC(F)(F)CC1` [Example 94, 4,4-difluoro-piperidine-1-carboxylic acid [(3S,3aR,6S,6aS)-6-(4-fluoro-phenoxy)-hexahydro-furo[3,2-b]furan-3-yl]-amide], 2480 nM.
